Laboratory results published in the NIST ThermoML archive (doi:10.1021/je101058b).

Conditions: Liquid, Pycnometric method

c1ccc2c(c1)ccc1ccccc12 [phenanthrene]
molar volume [m3/mol]
Conditions	377.69 K	385.54 K	393.38 K	401.26 K	409.13 K	417.06 K	424.84 K
2049 kPa	0.0001679	0.0001688	0.0001698	0.0001708	0.0001717	0.0001728	0.0001738
4049 kPa	0.0001677	0.0001686	0.0001696	0.0001705	0.0001715	0.0001726	0.0001735
6049 kPa	0.0001674	0.0001683	0.0001692	0.0001702	0.0001712	0.0001723	0.0001732
8049 kPa	0.0001672	0.0001681	0.000169	0.00017	0.000171	0.0001719	0.0001729
10049 kPa	0.000167	0.0001679	0.0001689	0.0001698	0.0001709	0.0001718	0.0001727
